The values that follow come from patent US20110160054A1, “Pesticidal Mixtures Comprising Cyanosulfoximine Compounds and Spinetoram” (BASF SE, priority 2008, published 2011).

Read-outs that look alike come from different tables or passages of the source.

Common to all, as to type: cell-based
Details in all cases: single compound, 7 days after inoculation

For experiment [1], the system named is Botrytis cinerea. Briefly: Activity against the grey mold Botrytis cinerea in the microtiterplate test (Botrci).
Experiment [2] deals with Pyricularia oryzae.
For experiment [3], the system named is Septoria tritici. In words: Activity against leaf blotch on wheat caused by Septoria tritici, microtiter test (Septtr).
The subject of experiment [4] is Phytophthora infestans.

In experiment [1] (0.063 ppm), `OC(Cc1ccccc1Cl)(Cn1nc[nH]c1=S)C1(Cl)CC1` (centres unmarked) [Prothioconazol, prothioconazole] showed an Observed efficacy of 19%.

For Spinetoram, the Observed efficacy in experiment [1] (0.25 ppm) was found to be 1%; in experiment [1] (4 ppm), 1%; in experiment [1] (16 ppm), 0%; in experiment [1] (63 ppm) it was 21%; in experiment [2] (4 ppm), 2%; in experiment [2] (16 ppm), 2%. Moreover, the Observed efficacy is listed as 34% in experiment [2] (63 ppm); 0% in experiment [3] (16 ppm); 4% in experiment [3] (63 ppm); 2% in experiment [4] (4 ppm); 24% in experiment [4] (16 ppm).

mancozeb gave an Observed efficacy in experiment [1] (16 ppm) of 46%.

On to `CC1(C(=O)Nc2ccc(O)c(Cl)c2Cl)CCCCC1` [Fenhexamid, fenhexamid], for which, in experiment [3] (16 ppm), the Observed efficacy is 33%.

On to `COC(=O)Nc1nc2ccccc2[nH]1` [Carbendazim, carbendazim], for which the Observed efficacy in experiment [2] (0.25 ppm) is recorded as 15%.

Molecule `Cn1cc(C(=O)Nc2ccccc2C2CC2C2CC2)c(C(F)F)n1` (centres unmarked) [sedaxane] displayed an Observed efficacy in experiment [1] (0.25 ppm) of 41%.

Take `COC(=O)N(OC)c1ccccc1COc1ccn(-c2ccc(Cl)cc2)n1` [Pyraclostrobin, pyraclostrobin]: the Observed efficacy in experiment [1] (0.25 ppm) is on record as 4%.

In experiment [4] (0.063 ppm), `Cc1ccc(-c2c(Cl)nc(C#N)n2S(=O)(=O)N(C)C)cc1` [Cyazofamid, cyazofamid] returned an Observed efficacy of 67%.

On to `CC(C)CC(C)c1sccc1NC(=O)c1cn(C)nc1C(F)(F)F` (centres unmarked) [penthiopyrad], for which the Observed efficacy is listed as 32% in experiment [1] (0.063 ppm), 45% in experiment [1] (0.25 ppm), 6% in experiment [2] (0.25 ppm) and 55% in experiment [2] (1 ppm).

Turning to `Fc1ccc([C@]2(Cn3cncn3)O[C@H]2c2ccccc2Cl)cc1` (racemic) [Epoxiconazol, epoxiconazole], in experiment [1] (0.25 ppm), the Observed efficacy is listed as 25%.

The molecule `CO/C=C(/C(=O)OC)c1ccccc1Oc1cc(Oc2ccccc2C#N)ncn1` [Azoxystrobin, azoxystrobin] had an Observed efficacy in experiment [3] (0.063 ppm) of 56%.

On to propineb, for which the values for the Observed efficacy in experiment [3] (1 ppm) and in experiment [4] (1 ppm) were 25% and 23%, respectively.
